Results reported in patent US20230059087A1, “CANNABIDIOL DERIVATIVES, PREPARATION METHOD THEREOF AND USE THEREOF” (CHENGDU BAIYU PHARMACEUTICAL CO., LTD., priority 2020, published 2023).

Assay: in vivo
Conditions: SD, rat, po, 50 mg/kg
Experimental: (§1) Healthy adult SD rats (n=3 per group) were fasted overnight (free access to water), and then were administrated the drugs by intragastric administration (i.g.) (50 mg/kg). 0.1 mL of blood was collected from the jugular venous plexus of the rats at 15 minutes, 30 minutes, 1 hour, 2 hours, 4 hours, 6 hours, 8 hours, 24 hours after administration. All blood samples were anticoagulated with K2EDTA, then centrifuged at 3500 rpm at 5° C. for 10 minutes to separate plasma, and stored at −20° C. for test. Parent drug concentration in plasma was determined by LC/MS/MS method.

| SMILES | AUC(0-inf) | AUC(0-t) | Cmax | Tmax | half-life |
| --- | --- | --- | --- | --- | --- |
| [2H]C([2H])([2H])C1=C[C@H](c2c(O)cc(CCC)cc2O)C(C(=C)C)CC1 (stereo in doubt) [Example 3, 5′-(methyl-d3)-2′-(prop-1-en-2-yl)-4-propyl-1′,2′,3′,4′-tetrahydro-[1,1′-biphenyl]-2,6-diol] | 4480 ng·h/mL | 4230 ng·h/mL | 795 ng/mL | 2.1 h | 4.9 h |

Assay: Pharmacokinetics in rats after intragastric administration
Conditions: SD, rat, plasma, po, 50 mg/kg
Experimental: as §1

| SMILES | AUC(0-inf) | AUC(0-t) | Cmax | Tmax | half-life |
| --- | --- | --- | --- | --- | --- |
| C=C(C)[C@@H]1CCC(C)=C[C@H]1c1c(O)cc(CCCCC)cc1O [CBD, cannabidiol] | 4500 ng·h/mL | 4460 ng·h/mL | 784 ng/mL | 2 h | 4.8 h |
| [2H]C([2H])=C([C@@H]1CCC(C([2H])([2H])[2H])=C[C@H]1c1c(O)cc(CCCCC)cc1O)C([2H])([2H])[2H] [Example 7, (1′R,2′R)-5′-(methyl-d3)-4-pentyl-2′-(prop-1-en-2-yl-d5)-1′,2′,3′,4′-tetrahydro-[1,1′-biphenyl]-2,6-diol] | 6290 ng·h/mL | 5830 ng·h/mL | 901 ng/mL | 2.2 h | 6.5 h |
| [2H]C([2H])([2H])C1=C[C@@H](c2c(O)cc(CCCCCCC)cc2O)[C@H](C(=C)C)CC1 [Example 9, (1′R,2′R)-4-heptyl-5′-(methyl-d3)-2′-(prop-1-en-2-yl)-1′,2′,3′,4′-tetrahydro-[1,1′-biphenyl]-2,6-diol] | 6480 ng·h/mL | 6220 ng·h/mL | 823 ng/mL | 2 h | 7.9 h |
| [2H]C([2H])([2H])C1=C[C@@H](c2c(O)cc(CCCCC)cc2O)[C@H](C(=C)C)CC1([2H])[2H] [Example 13, (1′R,2′R)-5′-(methyl-d3)-4-pentyl-2′-(prop-1-en-2-yl)-1′,2′,3′,4′-tetrahydro-[1,1′-biphenyl]-4′,4′-d2-2,6-diol] | 6180 ng·h/mL | 5980 ng·h/mL | 871 ng/mL | 2 h | 6 h |
| [2H]C([2H])(O)C1=C[C@@H](c2c(O)cc(CCCCC)cc2O)[C@H](C(=C)C)CC1([2H])[2H] [Example 16] | 5630 ng·h/mL | 5490 ng·h/mL | 860 ng/mL | 1.5 h | 5.8 h |
| [2H]C([2H])([2H])C1=C[C@H](c2c(O)cc(CCCCC)c(C(=O)O)c2O)[C@@H](C(=C)C)CC1 [Example 23] | 8230 ng·h/mL | 6980 ng·h/mL | 977 ng/mL | 1.75 h | 6.5 h |
